US6423714B1, “Cyclohexene derivatives useful as antagonists of the motilin receptor” (Ortho McNeil-Pharmaceutical, Inc.., priority 2000, dated 2002)

Biological target: T1, motilin receptors located on the colon of mature rabbits (Oryctolagus cuniculus, UniProt G1T803)
T1 construct: The muscle tissues were homogenized in 10 volumes of buffer; from tissue; host or cells: rabbit colon smooth muscle, crude membrane homogenate
Assay: Competition with radiolabeled (I125) porcine motilin for motilin receptors in rabbit colon membranes
Format: binding
Settings: @ 50 nM; I125 motilin (porcine) 25-40 pM; rabbit colon smooth muscle membranes; 30 min at 30° C.
Procedure: The compounds of the invention were tested for their ability to compete with radiolabeled motilin (porcine) for the motilin receptors located on the colon of mature rabbits. The colon from mature New Zealand rabbits was removed, dissected free from the mucosa and serosa layers, and diced into small pieces. The muscle tissues were homogenized in 10 volumes of buffer (50 mM Tris-Cl, 10 mM MgCl2, 0.1 mg/mL bactracin, and 0.25 mM Peflabloc, pH 7.5) in a Polytron (29,000 rpm, 4×15 seconds). The homogenate was centrifuged at 1000×g for 15 min. and the supernatant discarded. The pellet was washed twice before being suspended in homogenizing buffer. This crude homogenate was then passed first through a 19 gauge needle then a 23 gauge needle to further suspend the material and stored at −80° C. […] The pellet was counted in the gamma counter to determine the percentage of […] motilin and thereby the percent inhibition of the test compound.
% inhibition was determined for some compounds by standard techniques: […]

T1 sequence (G1T803 1-400): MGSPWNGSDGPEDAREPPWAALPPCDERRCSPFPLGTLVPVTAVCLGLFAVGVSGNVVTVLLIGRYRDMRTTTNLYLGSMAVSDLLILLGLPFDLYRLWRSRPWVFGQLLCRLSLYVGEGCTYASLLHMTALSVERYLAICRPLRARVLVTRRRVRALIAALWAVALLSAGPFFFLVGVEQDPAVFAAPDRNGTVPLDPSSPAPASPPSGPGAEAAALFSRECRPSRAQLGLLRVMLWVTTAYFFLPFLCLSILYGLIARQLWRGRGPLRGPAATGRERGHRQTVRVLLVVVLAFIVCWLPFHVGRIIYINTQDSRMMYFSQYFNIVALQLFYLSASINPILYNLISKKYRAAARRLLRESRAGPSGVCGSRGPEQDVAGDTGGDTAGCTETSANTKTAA

Molecule	% inhibition
3-Benzyl-3-trichloroacetamido-1-N[(3-(2-morpholinoethoxy)phenyl)amino]methylcyclohexene [Example 7]	59%
O=C(Nc1ccccc1)N(CC1=CC(Cc2ccccc2)(NC(=O)C(Cl)(Cl)Cl)CCC1)c1cccc(OCCN2CCOCC2)c1 (centres unmarked) [Example 6, 3-Benzyl-3-trichloroacetamido-1-(N-phenylaminocarbonyl)-N-[(3-(2-morpholinoethoxy)phenyl)amino]methylcyclohexene]	62%
